Test results from patent US5599808A, “Aqueous indolocarbazole solutions” (Cephalon, Inc., priority 1995, dated 1997).
Values after ≈ are worked out from the molar mass of the structure shown.

Columns and labels:
[1] = cited from earlier work; for insolubility in water: Nakanishi et al.
[2] = Concentration of dissolved indolocarbazole obtained in aqueous solutions (HPLC); conditions: organic solvent or mixture
Procedure: In general, a solution of the concentrate can be prepared by combining a dispersant such as polyvinylpyrrolidone C-30 and a selected organic solvent such as propylene glycol into a beaker. The mixture is continuously stirred until completely dissolved. Solid PVP or other solution components may take 1-2 hours to dissolve completely at room temperature.
An amount of an indolocarbazole, for example, staurosporine, K-252a, or any one of indolocarbazole A, B, or C (Table 1) can each be individually weighed and added to a small aliquot of the aqueous solution, resulting in a 10 mg/ml solution after the indolocarbazole completely dissolves. Alternatively, a mixture of indolocarbazoles may be combined, weighed, and added to a small aliquot of the aqueous solution resulting in a 10 mg/ml solution after the indolocarbazole completely dissolves. An indolocarbazole solution can be stirred or shaken vigorously overnight. Any undissolved indolocarbazole is removed by standard centrifugation or filtration techniques. The concentration of solubilized indolocarbazole can be determined by reversed phase HPLC using a UV detector (290 nm).
The following HPLC conditions are used to determine the concentration of an indolocarbazole:
HPLC Column: Zorbax Rx C-18 4.6×250 mm, 5 micron particle size
Prior to injection of an indolocarbazole solution, there is allowed a 10 minute equilibration time.
Fifty g of PEG-400 were added to 50 ml of water and the mixture vigorously stirred until completely dissolved. One mg of either K-252a, staurosporine or the indolocarbazoles B or C (see Table 1) were added individually to a 100 μl aliquot of the PEG-400 solution and the resulting mixture was shaken overnight. The solution was clarified by centrifugation at 1000 rpm for 10 minutes. The supernatant was saved and any residue discarded. Ten μl of the supernatant was removed, diluted with DMSO (100:1) and the concentration of dissolved K-252a determined by HPLC.
Same as example 1 except that PEG-600 was used instead of PEG-400.
Same as example 1 except that PEG-1000 was used instead of PEG-400.
Same as example 1 except that 48 ml of water was used and 2 g of benzyl alcohol was added to the PEG-400 solution.
Same as example 2 except that 48 ml of water was used and 2 g of benzyl alcohol was added to the PEG-600 solution.
Same as example 3 except that 48 ml of water was used and 2 g of benzyl alcohol was added to the PEG-1000 solution.
2.5 g of benzyl alcohol was added to 47.5 g of PEG-400 and, in a separate container, 2.5 g of Pluronic F68 was added to 47.5 ml of water. Each solution was stirred until completely dissolved, then each solution was combined and stirred until homogeneous. One mg of K-252a was added to 100 μl of the solution and the resulting mixture was shaken overnight. The solution was clarified by centrifugation at 1000 rpm for 10 minutes. Ten (10) μl of supernatant was removed, diluted with DMSO (100:1), and the concentration of dissolved K-252a determined by HPLC.
Same as example 7 except that Pluronic™ L61 was used instead of Pluronic™ F68.
Same as example 7 except that Pluronic™ L64 was used instead of Pluronic™ F68.
Same as example 7 except that Tween™ 20 was used instead of Pluronic™ F68.
Same as example 7 except that Tween™ 80 was used instead of Pluronic™ F68.
Same as example 7 except that PVP was used instead of Pluronic™ F68 and PEG-300 was used instead of PEG-400.
Same as example 12 except that PEG-400 was used instead of PEG-300 and indolocarbazoles A, B or C were each solubilized individually in addition to K-252a.
Same as example 12 except that PEG-600 was used instead of PEG-300 and indolocarbazoles A, B or C were each solubilized individually in addition to K-252
Same as example 12 except that PEG-1000 was used instead of PEG-300.
Ten (10) g of Triton X-100 was added to 38 ml of water and the mixture was stirred thoroughly.

[3] = Procedure: In a flask, 10 g of PVP (k value of 17) was added to 990 grams of propylene glycol. This mixture was stirred until the PVP was completely dissolved. Two hundred fifty (250) mg of compound A (Table 1) was added to 10 ml of the above solution and the mixture was stirred until compound A was completely dissolved. This solution is called Indolocarbazole Propylene Glycol Concentrate (IPGC).
To test for the stability of an indolocarbazole in this solution, 1 ml aliquots of IPGC were removed and placed in small amber colored vials and kept at 4° C room temperature (about 25° C.), 37° C, and 60° C for 4, 7, 14 and 30 days. The sample at 4° C was kept in a refrigerator and received light when a door was opened. The sample at room temperature was placed on the laboratory bench and exposed to the fluorescent lights of the room during the day. The samples at 37° C and 60° C were kept in small incubators essentially in the dark. A 1 ml aliquot of the same IPGC was added to a clear vial and that vial was kept at 25° C in 300 foot candles of light for 4, 7, 14 and 30 days. At each interval of time, an aliquot of IPGC was removed from each vial, diluted 200 fold in DMSO and the concentration of compound A determined by reversed phase HPLC using a UV detector (290 nm).
In this example, compound A was further diluted in Indolocarbazole Diluent Solution. […]

[4] = 50% peg 400, 50% h2o, Concentration Obtained, Example 1: 50% PEG 400, 50% H2O, target 10 mg/ml
[5] = 50% peg 600, 50% h2o, Concentration Obtained, Example 2: 50% PEG 600, 50% H2O, target 10 mg/ml
[6] = 50% peg 1000, 50% h2o, Concentration Obtained, Example 3: 50% PEG 1000, 50% H2O, target 10 mg/ml
[7] = peg 400/ba/h2o, Concentration Obtained, Example 4: 50% PEG 400, 2% BA, 48% H2O, target 10 mg/ml
[8] = peg 600/ba/h2o, Concentration Obtained, Example 5: 50% PEG 600, 2% BA, 48% H2O, target 10 mg/ml
[9] = peg 600/ba/pvp/h2o, Concentration Obtained (saturation level), Example 22: 50% PEG 600, 2% BA, 10% PVP, 38% H2O, 10 mg added
[10] = peg 1000/ba/h2o, Concentration Obtained, Example 6: 50% PEG 1000, 2% BA, 48% H2O, target 10 mg/ml
[11] = peg 400/ba/pvp/h2o, Concentration Obtained
[12] = peg 600/ba/pvp/h2o, Concentration Obtained
[13] = peg 600/ba/pvp/h2o, Concentration Obtained (saturation level)
[14] = peg 1000/ba/pvp/h2o, Concentration Obtained

## O=C1NCc2c1c1c3ccccc3[nH]c1c1[nH]c3ccccc3c21 [Compound K-252c]
[1]
  insolubility in water: insolubility
  solubility in non-aqueous, toxic solvents: soluble in non-aqueous, toxic solvents
  solubility in water: insoluble in water

## CN[C@@H]1C[C@H]2O[C@@](C)([C@@H]1OC)n1c3ccccc3c3c4c(c5c6ccccc6n2c5c31)C(=O)NC4 [Staurosporine, staurosporine]
[2]; [4]
  solubility thermodynamic: 710 µg/mL (≈ 1.52 mM)
[2]; [5]
  solubility thermodynamic: 1890 µg/mL (≈ 4.05 mM)
[2]; [6]
  solubility thermodynamic: 1650 µg/mL (≈ 3.54 mM)
[2]; [7]
  solubility thermodynamic: 1210 µg/mL (≈ 2.59 mM)
[2]; [8]
  solubility thermodynamic: 1890 µg/mL (≈ 4.05 mM)
[2]; [9]
  solubility thermodynamic: 8400 µg/mL (≈ 18 mM)
[2]; peg 600/ba/pvp/h2o, Concentration Obtained, Example 18: 50% PEG 600, 2% BA, 10% PVP, 38% H2O, target 10 mg/ml
  solubility thermodynamic: 8410 µg/mL (≈ 18 mM)
[2]; peg 600/ba/triton x-100/h2o, Concentration Obtained, Example 16: 50% PEG 600, 2% BA, 10% Triton X-100, 38% H2O, target 10 mg/ml
  solubility thermodynamic: 7590 µg/mL (≈ 16.3 mM)
[2]; peg 600/ba/tween 80/h2o, Concentration Obtained, Example 17: 50% PEG 600, 2% BA, 10% Tween 80, 38% H2O, target 10 mg/ml
  solubility thermodynamic: 4600 µg/mL (≈ 9.86 mM)
[2]; [10]
  solubility thermodynamic: 1680 µg/mL (≈ 3.6 mM)

## C[C@@H]1O[C@@H](n2c3ccccc3c3c4c(c5c6ccccc6[nH]c5c32)CNC4=O)[C@H](O)[C@H](O)[C@H]1O [Compound K-252d]
[1]
  insolubility in water: insolubility
  solubility in non-aqueous, toxic solvents: soluble in non-aqueous, toxic solvents
  solubility in water: insoluble in water

## COC1(CO)CC2OC1(C)n1c3ccccc3c3c4c(c5c6ccccc6n2c5c31)C(=O)NC4 (centres unmarked) [Compound A]
[3]; 0 min
  Stability of Compound A in IPGC: 100%
[3]; propylene glycol with pvp, 720 h
  loss of activity in IPGC: 13.3%
[2]; [11]
  solubility thermodynamic: 10000 µg/mL (≈ 22.1 mM)
[2]; [12]
  solubility thermodynamic: 10000 µg/mL (≈ 22.1 mM)
[2]; [13]
  solubility thermodynamic: 40000 µg/mL (≈ 88.2 mM)
[2]; [14]
  solubility thermodynamic: 10000 µg/mL (≈ 22.1 mM)

## CC[S+]([O-])Cc1ccc2c(c1)c1c3c(c4c5ccccc5n5c4c1n2C1CC(O)(C(=O)OC)C5(C)O1)CNC3=O (centres unmarked) [Compound C]
[2]; 50% peg 400, 50% h2o, Concentration Obtained
  solubility thermodynamic: 750 µg/mL (≈ 1.34 mM)
[2]; 50% peg 600, 50% h2o, Concentration Obtained
  solubility thermodynamic: 500 µg/mL (≈ 0.897 mM)
[2]; 50% peg 1000, 50% h2o, Concentration Obtained
  solubility thermodynamic: 720 µg/mL (≈ 1.29 mM)
[2]; peg 400/ba/h2o, Concentration Obtained
  solubility thermodynamic: 1010 µg/mL (≈ 1.81 mM)
[2]; [11]
  solubility thermodynamic: 4000 µg/mL (≈ 7.17 mM)
[2]; peg 600/ba/h2o, Concentration Obtained
  solubility thermodynamic: 890 µg/mL (≈ 1.6 mM)
[2]; [12]
  solubility thermodynamic: 4600 µg/mL (≈ 8.25 mM)
[2]; [13]
  solubility thermodynamic: 4600 µg/mL (≈ 8.25 mM)
[2]; peg 600/ba/triton x-100/h2o, Concentration Obtained
  solubility thermodynamic: 4630 µg/mL (≈ 8.3 mM)
[2]; peg 600/ba/tween 80/h2o, Concentration Obtained
  solubility thermodynamic: 4790 µg/mL (≈ 8.59 mM)
[2]; peg 1000/ba/h2o, Concentration Obtained
  solubility thermodynamic: 800 µg/mL (≈ 1.43 mM)
[2]; [14]
  solubility thermodynamic: 6000 µg/mL (≈ 10.8 mM)
[2]; peg 1000/ba/pvp/h2o, Concentration Obtained (saturation level)
  solubility thermodynamic: 5000 µg/mL (≈ 8.97 mM)

## CC12OC(CC1(O)C(=O)O)n1c3ccccc3c3c4c(c5c6ccccc6n2c5c31)CNC4=O (centres unmarked) [Compound K-252b]
[1]
  solubility in non-aqueous, toxic solvents: soluble in non-aqueous, toxic solvents

## COC(=O)C1(O)CC2OC1(C)n1c3ccccc3c3c4c(c5c6cc(O)ccc6n2c5c31)C(=O)NC4 (centres unmarked) [Compound B]
[2]; [4]
  solubility thermodynamic: 3150 µg/mL (≈ 6.52 mM)
[2]; [5]
  solubility thermodynamic: 2680 µg/mL (≈ 5.54 mM)
[2]; [6]
  solubility thermodynamic: 4440 µg/mL (≈ 9.18 mM)
[2]; [7]
  solubility thermodynamic: 3260 µg/mL (≈ 6.74 mM)
[2]; peg 400/ba/pvp/h2o, Concentration Obtained, Example 13: 47.5% PEG 400, 2.5% BA, 2.5% PVP, 47.5% H2O, target 10 mg/ml
  solubility thermodynamic: 10000 µg/mL (≈ 20.7 mM)
[2]; [8]
  solubility thermodynamic: 3590 µg/mL (≈ 7.43 mM)
[2]; peg 600/ba/pvp/h2o, Concentration Obtained (saturation level), Example 20: 47.5% PEG 600, 2.5% BA, 2.5% PVP, 47.5% H2O, 10 mg added
  solubility thermodynamic: 10000 µg/mL (≈ 20.7 mM)
[2]; [9]
  solubility thermodynamic: 16400 µg/mL (≈ 33.9 mM)
[2]; peg 600/ba/pvp/h2o, Concentration Obtained, Example 14: 47.5% PEG 600, 2.5% BA, 2.5% PVP, 47.5% H2O, target 10 mg/ml
  solubility thermodynamic: 10000 µg/mL (≈ 20.7 mM)
[2]; [10]
  solubility thermodynamic: 5020 µg/mL (≈ 10.4 mM)
[2]; peg 1000/ba/pvp/h2o, Concentration Obtained, Example 19: 40% PEG 1000, 2% BA, 10% PVP, 48% H2O, target 10 mg/ml
  solubility thermodynamic: 10000 µg/mL (≈ 20.7 mM)
